Test results as given in patent publication US20260209243A1, “A BIOORTHOGONAL CYCLOADDITION REACTION AND USE THEREOF” (NANJING UNIVERSITY, priority 2022, published 2026).

Assays:
[1] = Kinetics studies: DFC reaction of FuA with oD1 in PBS; details: pH 7.4 PBS buffer
Experimental: (§1) DFC reaction in PBS and on proteins. (A) The DFC reaction of oD1 with FuA in pH 7.4 PBS buffer; (B) Time-dependent labelling of 2 mg/mL BSA-FuA with 100 nM oD1-TAMRA for time indicated. Fluorescence signals were acquired using Cy3 channel. Coomassie staining was used to assess BSA loading; (C) Schematic illustration on the single-site modification of the protein oD1 (C156)-SNAP-GFP through the DFC reaction. SNAP-GFP (2 mg/mL) in PBS (pH=7.4) was mixed with 1.5 equivalents of BG-PEG4-oD1 and was incubated at room temperature for 20 min to give oD1 (C156)-SNAP-GFP.
(§2) Measurement of second order rate constants of (A) reactions of o-dione (25 μM) with furan-2(3H)-one (250 μM) in 1×PBS (pH=7.4) and (B) reactions of oD1 (25 μM) with α-AL (250 μM) in different pH buffer. (When pH=5, 6; oD1 is 250 μM and α-AL is 2.5 mM) by plotting ln[1/(1−x)] versus time of o-dione with furan-2(3H)-one reaction (x represents the percent conversion of o-dione).
All kinetics experiments were carried out at room temperature in 1×PBS (pH=7.4). […] Pseudo-first order rate constant kobs was determined by plotting ln[1/(1−x)] versus time and analysis by linear regression. x represents the percent conversion of o-dione. […] The second rate constant k2 was calculated by kobs/[furan-2(3H)-one]. […]

[2] = system: SKOV3 cells; assay: MTT assay; type: cell-based; details: 0-200 μM, 24 h
Experimental: Relative cell viability of SKOV3 cells after incubation with FuA or PDO6. SKOV3 cells were incubated with 0-200 μM FuA or PDO6 for 24 h. MTT was used to assess the cell viability. Data are shown as mean±SEM (n=3).
SKOV3 cells were seeded in 96-well plates with a concentration of 10,000 cells per well. After 12 h, FuA or PDO6 was added with final concentrations of 0, 40, 80, 120, 160, 200 μM. Then, SKOV3 cells were further cultured for 24 h. MTT assay was then carried out. For each well, 20 μL MTT solution (final concentration, 1 mg/mL) was added and 150 μL DMSO was added after 4 h′ incubation. The absorbance at 490 nm was then measured to indicate the cell viability.

[3] = Kinetics studies: cycloaddition of o-diones with α-AL; details: aqueous solution, pH ranging from 5 to 9
Experimental: The cycloaddition kinetics of α-AL with different o-diones in pH 7.4 PBS buffer or in aqueous solution with indicated pH.
as §2
All kinetics experiments were carried out at room temperature in 1×PBS (pH=7.4). Second order kinetics were performed by combining o-dione and furan-2(3H)-one in a 1:10 ratio, and the concentration of o-dione is 25/250 μM. Pseudo-first order rate constant kobs was determined by plotting ln[1/(1−x)] versus time and analysis by linear regression. x represents the percent conversion of o-dione. The slope of the linear equation is kobs. The second rate constant k2 was calculated by kobs/[furan-2(3H)-one]. The reported errors for rate constants are based on the standard deviation of the mean for experiments performed in triplicate.

[4] = system: live cells; details: stated as known; cited from earlier work
[5] = molecular target: T1, BSA-FuA (Bos taurus, UniProt P02769); assay: In-gel fluorescence assay of DFC reaction on BSA-FuA; type: biochemical, bovine; details: incubated in PBS; PDO type cycloadduct confirmed by LC-MS/MS
T1 construct: purchased Sangon Biotech (Shanghai, China)
T1 sequence (P02769 25-607): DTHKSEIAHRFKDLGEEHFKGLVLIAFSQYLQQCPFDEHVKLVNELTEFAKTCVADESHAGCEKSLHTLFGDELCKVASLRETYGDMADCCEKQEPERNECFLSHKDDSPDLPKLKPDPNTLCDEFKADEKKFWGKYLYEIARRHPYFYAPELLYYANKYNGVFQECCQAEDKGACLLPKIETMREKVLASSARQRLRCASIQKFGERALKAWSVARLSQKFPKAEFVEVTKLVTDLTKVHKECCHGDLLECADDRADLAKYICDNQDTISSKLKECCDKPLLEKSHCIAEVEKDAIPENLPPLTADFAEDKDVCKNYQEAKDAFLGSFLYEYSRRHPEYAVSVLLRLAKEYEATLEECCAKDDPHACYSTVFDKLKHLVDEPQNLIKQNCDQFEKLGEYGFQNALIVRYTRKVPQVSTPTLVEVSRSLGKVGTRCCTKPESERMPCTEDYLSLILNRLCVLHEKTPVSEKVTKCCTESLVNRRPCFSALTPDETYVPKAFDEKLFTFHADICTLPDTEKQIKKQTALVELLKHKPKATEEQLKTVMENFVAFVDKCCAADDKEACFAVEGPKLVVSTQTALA
Experimental: as §1
DFC-based BSA protein labelling and characterization. […]
A solution of BSA (2 mg/mL) in PBS (pH=7.4) was mixed with 200 equivalents of FuA NHS ester and was shaken (900 rpm) at room temperature for 4 h. […] The concentration of BSA-FuA was quantified with BCA protein assay kit (Pierce).
For concentration-dependent reaction, BSA-FuA (2 mg/mL) was incubated with various concentrations of oD1-TAMRA (0-1000 nM) in PBS at room temperature for 30 min. […] Protein samples (20 μg) were further analyzed by gel electrophoresis using 12% polyacrylamide gels and imaged with Bio-Rad Chemdoc imaging system using corresponding filters. Protein loading was assessed by staining with Coomassie Blue according to manufacturer's instructions.

O=C(O)CCCC1=CCC(=O)O1 [FuA, 4-(5-oxo-4,5-dihydrofuran-2-yl)butanoic acid]
second-order constant of DFC reaction of oD1 with FuA [1]: about 4 M^−1 s^−1
cytotoxicity / compatibility with live cells (MTT) [2]: good compatibility with live cells

O=C(O)c1ccc2c(c1)-c1ccccc1C(=O)C2=O [oD1]
pH dependence of reaction kinetics with α-AL [3]: increase of pH under which α-AL is stable enough apparently accelerates the cycloaddition reaction
compatibility with live cells [4]: compatible with live cells

O=C1C(=O)c2ccccc2-c2ccccc21 [PQ, phenanthrene-9,10-dione]
fluorescence of BSA-FuA after incubation [5]: fluorescence turn-on
